In patent publication US7943624B2, “Pyridinylpyrazolopyrimidinone derivatives as PDE 7 inhibitors” (Asubio Pharma Co. Ltd., priority 2003, dated 2011) one finds IC50 data, which are given here for 20 molecules.

The structures appear in SMILES notation. “And” between values parts separate entries of the source, which are not always exact repeats. Equal values may be shown once.

T1 sequence (Q13946 whole entry): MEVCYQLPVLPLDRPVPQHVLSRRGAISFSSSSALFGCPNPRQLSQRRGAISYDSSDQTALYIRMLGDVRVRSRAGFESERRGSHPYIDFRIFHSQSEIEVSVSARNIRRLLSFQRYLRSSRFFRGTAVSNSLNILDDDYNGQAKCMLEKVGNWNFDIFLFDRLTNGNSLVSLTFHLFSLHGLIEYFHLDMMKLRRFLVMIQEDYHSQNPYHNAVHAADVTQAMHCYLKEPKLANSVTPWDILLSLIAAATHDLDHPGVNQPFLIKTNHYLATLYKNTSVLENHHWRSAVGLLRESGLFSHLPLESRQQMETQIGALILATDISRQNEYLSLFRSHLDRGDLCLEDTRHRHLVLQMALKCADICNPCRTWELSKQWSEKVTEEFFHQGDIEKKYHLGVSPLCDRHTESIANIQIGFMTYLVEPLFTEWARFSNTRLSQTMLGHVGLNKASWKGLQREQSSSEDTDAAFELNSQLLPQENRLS

The target of one assay is PDE 4 (phosphodiesterase IV). In words: PDE 4 inhibiting effect (Biological Test 2; 3H-cAMP hydrolysis by PDE 4 fraction from Balb/c mouse liver). The following applies: PDE 4 active fraction from Balb/c mouse liver; 0.064 μM cAMP, 2 hours at 25° C. The class given is biochemical, mice. The method, then: The PDE 4 (phosphodiesterase IV) inhibiting effect of the compounds of the present invention was performed by the following method, which was modified assay method described in Biochemical. Pharmacol. 48(6), 1219-1223 (1994).
(1) The active fraction of PDE 4 (phosphodiesterase IV) was obtained. That is, the livers obtained from three Balb/c mice (male, 12 weeks: obtainable from CLEA Japan, Inc.) were suspended with 30 mL of buffer solution B [20 mM of bis-tris, 5 mM of 2-mercaptoethnol, 2 mM of benzamidine, 2 mM of EDTA, 0.1 mM of 4-(2-aminoethyl)benzensulfonyl hydrochloride, 50 mM of sodium acetate; pH 6.5], then homogenized by Polytron® homogenizer. The homogenate were centrifuged under 25,000×G for 10 minutes at 4° C. The supernatant was separated and thus obtained supernatant was further centrifuged under 100,000×G for 60 minutes at 4° C., and then filtrated with 0.2pm filter to obtain the soluble fraction. […]
(3) The tested compound having desired concentration was reacted in the solution of 20 mM tris-HCl (pH 7.5), […], 100 μM of EDTA, 330 μg/mL of bovine serum albumin, 4 μg/mL of 5′-nucleotidase, 0.1 μCi of ^3H-cAMP (0.064 μM of cAMP), and storage solution of PDE 4 for 2 hours at 25° C. […] Further, Sephadex®-QAE was added to the obtained supernatant and the mixture was left at rest for 5 minutes, then, the radioactivity of the solution was measured. […]
A word on the IC50: it is the concentration needed to halve the response being measured. Lower therefore signals higher potency. With `CNC1CCN(c2ccc(-c3nc4c(c(C5CCCCC5)nn4C)c(=O)[nH]3)c(OC)n2)CC1` [Compound 26, 3-Cyclohexyl-6-{2-methoxy-6-[4-(methylamino)-1-piperidinyl]-3-pyridinyl}-1-methyl-1,5-dihydro-4H-pyrazolo[3,4-d]-pyrimidin-4-one], the half-maximal inhibitory concentration (IC50) came out at 1200 nM.
On the same count and under the same terms, the value for `CNC1CCN(c2ccc(-c3nc4c(C)nn(C5CCCCC5)c4c(=O)[nH]3)c(OC)n2)CC1` [Compound 32] was 980 nM.

A further assay has as its target T1, PDE 7 (phosphodiesterase VII) (Homo sapiens, UniProt Q13946).
T1 construct: filtrated with 0.2 μm filter to obtain the soluble fraction; endogenous in cells; host or cells: MOLT-4 (ATCC CRL-1582); soluble fraction, HiTrap Q eluate at about 350 mM NaCl
The assay is described as follows: PDE 7 inhibiting effect (Biological Test 1; 3H-cAMP hydrolysis by PDE 7 fraction from MOLT-4 cells). Particulars: PDE 7 active fraction from MOLT-4 cells; 0.064 μM cAMP, 10 μM rolipram, 2 hours at 25° C. Type of assay: biochemical. As for the experimental part: The PDE 7 (phosphodiesterase VII) inhibiting effect of the compounds of the present invention was performed by the following method, which was modified assay method described in Biochemical. Pharmacol. 48(6), 1219-1223 (1994).
(1) The active fraction of PDE 7 (phosphodiesterase VII) was obtained. That is, MOLT-4 (obtainable from ATCC as ATCC No. CRL-1582), which was cell line of human acute lymphoblastic lymphoma T cells, was incubated in RPMI1640 culture medium containing 10% fetal bovine serum to obtain 5×10^8 MOLT-4 cells. The cells were collected by centrifugation and suspended with 10 mL of buffer solution A 125 mM of tris-HCl, 5 mM of 2-mercaptoethnol, 2 mM of benzamidine, 2 mM of EDTA, 0.1 μM of 4-(2-aminoethyl)benzensulfonyl hydrochloride; pH 7.5], then homogenized by Polytron® homogenizer. The homogenate were centrifuged under 25,000×G for 10 minutes at 4° C. The supernatant was separated and thus obtained supernatant was further centrifuged under 100,000×G for 60 minutes at 4° C., and then filtrated with 0.2 μm filter to obtain the soluble fraction.
(2) The obtained soluble fraction was filled in equilibrium HiTrap Q column (5 mL×2) with buffer solution A, and phosphodiesterase fractions were eluted by 300 mL of buffer solution A with linear gradient from 0 to 0.8 M NaCl concentration. 5 ml each of 60 eluents were collected, and each eluents were examined for cyclic AMP metabolic activities of phosphodiesterase. The fraction eluting with about 350 mM NaCl concentration parts, where metabolic activities were not inactivated by 10 μM of rolipram (selective inhibitor for phosphodiesterase IV) and 10 μM of milrinone (selective inhibitor for phosphodiesterase III), were collected as storage solution for using to test PDE 7 inhibiting effect.
(3) The tested compound having desired concentration was reacted in the solution of 20 mM tris-HCl (pH 7.5), 1 mM of MgCl2, 100 μM of EDTA, 330 μg/mL of bovine serum albumin, 4 μg/mL of 5′-nucleotidase, 0.1 μCi of ^3H-cAMP (0.064 μM of cAMP), 10 μM of rolipram in storage solution of PDE 7 for 2 hours at 25° C. After the reaction, suspension of Sephadex®-QAE in 10 mM of HEPES-Na (pH 7.0) was added to the reaction mixture, and the mixture was left at rest for 5 minutes. Further, Sephadex®-QAE was added to the obtained supernatant and the mixture was leaved at rest for 5 minutes, then, the radioactivity of the solution was measured.
(4) IC50 was calculated as 50% inhibiting concentration of the metabolic activities of phosphodiesterase VII of the tested compound.
Molecule `COc1nc(N2CCN(C)CC2)ccc1-c1nc2c(C)nn(C3CCCCC3)c2c(=O)[nH]1` [Compound 16, 1-Cyclohexyl-5-[2-methoxy-6-(4-methyl-1-piperazinyl)-3-pyridinyl]-3-methyl-1,6-dihydro-7H-pyrazolo[4,3-d]pyrimidin-7-one] had an IC50 of no more than 100 nM.
`COc1nc(N2CCOCC2)ccc1-c1nc2c(C)nn(C3CCCCC3)c2c(=O)[nH]1` [Compound 17, 1-Cyclohexyl-5-[2-methoxy-6-(4-morpholinyl)-3-pyridinyl]-3-methyl-1,6-dihydro-7H-pyrazolo[4,3-d]pyrimidin-7-one] yielded an IC50 of no more than 100 nM.
The same measure, in the same setting: the value for `COc1nc(N2CCCN(C)CC2)ccc1-c1nc2c(C)nn(C3CCCCC3)c2c(=O)[nH]1` [Compound 18, 1-Cyclohexyl-5-[2-methoxy-6-(4-methyl-1,4-diazepan-1-yl)-3-pyridinyl]-3-meth-1-1,6-dihydro-7H-pyrazolo[4,3-d]pyrimidin-7-one] was no more than 100 nM; that for `COc1nc(N2CCN(C)CC2)ccc1-c1nc2c(c(C3CCCCC3)nn2C)c(=O)[nH]1` [Compound 20, 3-Cyclohexyl-6-[2-methoxy-6-(4-methyl-1-piperazinyl)-3-pyridinyl]-1-methyl-1,5-dihydro-4H-pyrazolo[3,4-d]pyrimidin-4-one] was no more than 100 nM; that for `COc1nc(N2CCOCC2)ccc1-c1nc2c(c(C3CCCCC3)nn2C)c(=O)[nH]1` [Compound 21, 3-Cyclohexyl-6-[2-methoxy-6-(4-morpholinyl)-3-pyridinyl]-1-methyl-1,5-dihydro-4H-pyrazolo[3,4-d]pyrimidin-4-one] was no more than 100 nM.
The same measure, in the same setting: the value for `COc1nc(N2CCCN(C)CC2)ccc1-c1nc2c(c(C3CCCCC3)nn2C)c(=O)[nH]1` [Compound 22, 3-Cyclohexyl-6-[2-methoxy-6-(4-methyl-1,4-diazepan-1-yl)-3-pyridinyl]-1-methyl-1.5-dihydro-4H-pyrazolo[3,4-d]pyrimidin-4-one] was no more than 100 nM; that for `COc1nc(N2CCC(O)CC2)ccc1-c1nc2c(c(C3CCCCC3)nn2C)c(=O)[nH]1` [Compound 25, 3-Cyclohexyl-6-[6-(4-hydroxy-1-piperidinyl)-2-methoxy-3-pyridinyl]-1-methyl-1,5-dihydro-4H-pyrazolo[3,4-d]pyrimidin-4-one] was no more than 100 nM.
Still for that read-out and setting: the value for `CNC1CCN(c2ccc(-c3nc4c(c(C5CCCCC5)nn4C)c(=O)[nH]3)c(OC)n2)CC1` [Compound 26, 3-Cyclohexyl-6-{2-methoxy-6-[4-(methylamino)-1-piperidinyl]-3-pyridinyl}-1-methyl-1,5-dihydro-4H-pyrazolo[3,4-d]-pyrimidin-4-one] was ≤ 100 nM and 2.6 nM.
Regarding `COc1nc(N2CCC(N(C)C)CC2)ccc1-c1nc2c(c(C3CCCCC3)nn2C)c(=O)[nH]1` [Compound 27, 3-Cyclohexyl-6-{6-[4-(dimethylamino)-1-piperidinyl]-2-methoxy-3-pyridinyl}-1-methyl-1.5-dihydro-4H-pyrazolo[3,4-d]-pyrimidin-4-one], the IC50 is no more than 100 nM.
Regarding `COc1nc(N2CCC(N)CC2)ccc1-c1nc2c(c(C3CCCCC3)nn2C)c(=O)[nH]1` [Compound 28, 6-[6-(4-Amino-1-piperidinyl)-2-methoxy-3-pyridinyl]-3-cyclohexyl-1-methyl-1,5-dihydro-4H-pyrazolo[3,4-d]pyrimidin-4-one], the IC50 is no more than 100 nM.
On the same count and under the same terms, the value for `COc1nc(N2CCC(NC(C)=O)CC2)ccc1-c1nc2c(c(C3CCCCC3)nn2C)c(=O)[nH]1` [Compound 29, N-{1-[5-(3-Cyclohexyl-1-methyl-4-oxo-4,5-dihydro-1H-pyrazolo[3,4-d]-pyrimidin-6-yl)-6-methoxy-2-piridinyl]-4-piperidinyl}acetamide] was no more than 100 nM.
As to `CNC1CCN(c2ccc(-c3nc4c(C)nn(C5CCCCC5)c4c(=O)[nH]3)c(OC)n2)CC1` [Compound 32], the IC50 was ≤ 100 nM and 3.2 nM.
On the same count and under the same terms, the value for `COc1nc(N2CCC(N(C)C)CC2)ccc1-c1nc2c(C)nn(C3CCCCC3)c2c(=O)[nH]1` [Compound 33] was no more than 100 nM; that for `COc1nc(S(=O)(=O)N2CCCN(C)CC2)ccc1-c1nc2c(c(C3CCCCC3)nn2C)c(=O)[nH]1` [Compound 36, 3-Cyclohexyl-6-{2-methoxy-6-[(4-methyl-1,4-diazepan-1-yl)sulfonyl]-3-pyridinyl}-1-methyl-1,5-dihydro-4H-pyrazolo[3,4-d]pyrimidin-4-one] was no more than 100 nM.
Same read-out and setting: the value for `COc1nc(N2CCC(O)CC2)ccc1-c1nc2c(C)nn(C3CCCCC3)c2c(=O)[nH]1` [Compound 37, 1-Cyclohexyl-5-[6-(4-hydroxy-1-piperidinyl)-2-methoxy-3-pyridinyl]-3-methyl-1,6-dihydro-7H-pyrazolo[4,3-d]pyrimidin-7-one] was no more than 100 nM.
Still for that read-out and setting: the value for `CCOc1nc(N2CCN(C)CC2)ccc1-c1nc2c(C)nn(C3CCCCC3)c2c(=O)[nH]1` [Compound 43] was no more than 100 nM; that for `CCOc1nc(N2CCCN(C)CC2)ccc1-c1nc2c(C)nn(C3CCCCC3)c2c(=O)[nH]1` [Compound 44, 1-Cyclohexyl-5-[2-ethoxy-6-(4-methyl-1,4-diazepan-1-yl)-3-pyridinyl]-3-methyl-1,6-dihydro-7H-pyrazolo[4,3-d]pyrimidin-7-one] was no more than 100 nM.
For the molecule `CCOc1nc(N2CCC(N(C)C)CC2)ccc1-c1nc2c(C)nn(C3CCCCC3)c2c(=O)[nH]1` [Compound 47, 1-Cyclohexyl-5-{6-[4-(dimethylamino)-1-piperidinyl]-2-ethoxy-3-pyridinyl]-3-methyl-1,6-dihydro-7H-pyrazolo[4,3-d]-pyrimidin-7-one], the concentration for half-maximal inhibition (IC50) is no more than 100 nM.
Same read-out and setting: the value for `CCOc1nc(N2CCC(NC)CC2)ccc1-c1nc2c(C)nn(C3CCCCC3)c2c(=O)[nH]1` [Compound 48, 1-Cyclohexyl-5-{2-ethoxy-6-[4-(methylamino)-1-piperidinyl]-3-pyridinyl}-3-methyl-1,6-dihydro-7H-pyrazolo[4,3-d]pyrimidin-7-one] was no more than 100 nM; that for `CCOc1nc(N2CCC(O)CC2)ccc1-c1nc2c(C)nn(C3CCCCC3)c2c(=O)[nH]1` [Compound 49, 1-Cyclohexyl-5-[2-ethoxy-6-(4-hydroxy-1-piperidinyl)-3-pyridinyl]-3-methyl-1,6-dihydro-7H-pyrazolo[4,3-d]pyrimidin-7-one] was no more than 100 nM.
